The results in this text go back to US6455074B1, “Methods for fabricating polymer-based controlled release devices” (Alkermes Controlled Therapeutics, Inc., priority 1997, dated 2002).

The experiment relates to estrous cycle of the rat. The experiment can be described thus: Rat Estrous Cyclicity Model. Format: in vivo. The method, then:
The Rat Estrous Cyclicity Model is described in detail in Hahn et al., Biological Assays Utilized to Characterize LHRH and its Analogs. In: LHRH and its Analogs, Contraception and Therapeutic Applications (Eds. Vickery B H, Nestor J J, and Hafez ESE), pp. 49-60. MTP Press Ltd, Lancaster, England, 1984, the contents of which are incorporated herein by reference. The model is used to assess the pharnacodynamic effect which an effective serum level of azaline B (at least 2.0 ng/ml), provided by the administration of a sustained release device of the invention, has on the estrous cycle of the rat. When the minimum effective concentration of azaline B is present in serum, the estrus phase of the estrous cycle of the rat is suppressed and the rat remains in the diestrus phase of the estrous cycle.
Microparticles containing an effective amount of azaline B were prepared according to the “Particulate Method,” described above, and the methods of Examples 1 and 3. The presence of azaline B activity was measured as the percent of a test group which remained in the diestrus phase of the estrous cycle. Animals were subcutaneously injected with equal amounts of azaline B either encapsulated in a microparticle or unencapsulated. […] The results are depicted in FIGS. 1 and 2 which show a plot of the percent of animals per treatment group in diestrus for each formulation evaluated versus time.

“Ac-D-Nal′-D-Cpa^2-D-Pal^3-Ser^4-Aph^5(atz)-D-Aph^6(atz)-Leu^7-Ilys^8-Pro^9-D-Ala^10 [azaline B]”: the “effective serum level of azaline B (minimum effective concentration suppressing estrus phase)” value was “at least 2.0 ng/ml”.
